Test results as given in patent US20100298141A1, “SUBSTITUTED PYRIDINE N-OXIDE HERBICIDES” (E. I. DU PONT DE NEMOURS AND COMPANY, priority 2007, published 2010).

Assays:
goosegrass = assay: Test G preemergence test; type: in vivo, Eleusine indica; details: scale 0 to 100
green foxtail = assay: Test D preemergence test; type: in vivo, Setaria viridis; details: scale 0 to 100
Description: (§1) Seeds of plant species selected from annual bluegrass (Poa annua), blackgrass (Alopecurus myosuroides), downy bromegrass (Bromus tectorum), field violet (Viola arvensis), green foxtail (Setaria viridis), Italian ryegrass (Lolium multiflorum), littleseed canarygrass (Phalaris minor), spring wheat (Triticum aestivum), wild oat (Avena fatua), […]), winter barley (Hordeum vulgare), and winter wheat (Triticum aestivum) were planted and treated preemergence with test chemicals formulated in a non-phytotoxic solvent mixture which included a surfactant. […] A dash (-) response means no test result.

corn = assay: Test G preemergence test; type: in vivo, Zea mays; details: scale 0 to 100
tall waterhemp = assay: Test G preemergence test; type: in vivo, Amaranthus tuberculatos; details: scale 0 to 100
spring wheat = assay: Test D preemergence test; type: in vivo, Triticum aestivum; details: scale 0 to 100
Description: as §1

winter wheat = assay: Test D preemergence test; type: in vivo, Triticum aestivum; details: scale 0 to 100
Description: as §1

barnyardgrass = assay: Test G preemergence test; type: in vivo, Echinochloa crus-galli; details: scale 0 to 100
millet foxtail = assay: Test G preemergence test; type: in vivo, Setaria italica; details: scale 0 to 100
blackgrass = assay: Test D preemergence test; type: in vivo, Alopecurus myosuroides; details: scale 0 to 100
Description: as §1

annual bluegrass = assay: Test D preemergence test; type: in vivo, Poa annua; details: scale 0 to 100
Description: as §1

millet = assay: Test G preemergence test; type: in vivo, Panicum miliaceum; details: scale 0 to 100
downy bromegrass = assay: Test D preemergence test; type: in vivo, Bromus tectorum; details: scale 0 to 100
Description: as §1

wild oat = assay: Test D preemergence test; type: in vivo, Avena fatua; details: scale 0 to 100
Description: as §1

itchgrass = assay: Test G preemergence test; type: in vivo, Rottboellia cochinchinensis; details: scale 0 to 100
broadleaf signalgrass = assay: Test G preemergence test; type: in vivo, Brachiaria platyphylla; details: scale 0 to 100
sorghum = assay: Test G preemergence test; type: in vivo, Sorghum vulgare; details: scale 0 to 100
field violet = assay: Test D preemergence test; type: in vivo, Viola arvensis; details: scale 0 to 100
Description: as §1

umbrella sedge = assay: Test B flooded paddy test; type: in vivo, Cyperus difformis; details: Flood, 250 g ai/ha, 13 to 15 days; scale 0 to 100, 0 no effect, 100 complete control
Description: (§2) At time of treatment, test pots were flooded to 3 cm above the soil surface, treated by application of test compounds directly to the paddy water, and then maintained at that water depth for the duration of the test. Treated plants and controls were maintained in a greenhouse for 13 to 15 days, after which time all species were compared to controls and visually evaluated. […] A dash (-) response means no test result.

littleseed canarygrass = assay: Test D preemergence test; type: in vivo, Phalaris minor; details: scale 0 to 100
Description: as §1

woolly cupgrass = assay: Test G preemergence test; type: in vivo, Eriochloa villosa; details: scale 0 to 100
cotton = assay: Test G preemergence test; type: in vivo, Gossypium hirsutum; details: scale 0 to 100
Italian ryegrass = assay: Test D preemergence test; type: in vivo, Lolium multiflorum; details: scale 0 to 100
Description: as §1

duck salad = assay: Test B flooded paddy test; type: in vivo, Heteranthera limosa; details: Flood, 250 g ai/ha, 13 to 15 days; scale 0 to 100, 0 no effect, 100 complete control
Description: as §2

eastern black nightshade = assay: Test G preemergence test; type: in vivo, Solanum ptycanthum; details: scale 0 to 100
yellow foxtail = assay: Test G preemergence test; type: in vivo, Pennisetum glaucum; details: scale 0 to 100

SMILES: Cn1nc(C(F)(F)F)c(CS(=O)(=O)c2cccc[n+]2[O-])c1OC(F)F [Compound 4]
- Plant response rating, Goosegrass (goosegrass; 31 g ai/ha): 80
- Plant response rating, Goosegrass (goosegrass; 62 g ai/ha): 95
- Plant response rating, Goosegrass (goosegrass; 125 g ai/ha): 100
- Plant response rating, Goosegrass (goosegrass; 250 g ai/ha): 100
- Plant response rating, Foxtail, Green (green foxtail; 31 g ai/ha): 40
- Plant response rating, Foxtail, Green (green foxtail; 62 g ai/ha): 50
- Plant response rating, Foxtail, Green (green foxtail; 125 g ai/ha): 50
- Plant response rating, Foxtail, Green (green foxtail; 250 g ai/ha): 100
- Plant response rating, Corn (corn; 31 g ai/ha): 0
- Plant response rating, Corn (corn; 62 g ai/ha): 0
- Plant response rating, Corn (corn; 125 g ai/ha): 5
- Plant response rating, Corn (corn; 250 g ai/ha): 0
- Plant response rating, Waterhemp (tall waterhemp; 31 g ai/ha): 80
- Plant response rating, Waterhemp (tall waterhemp; 62 g ai/ha): 100
- Plant response rating, Waterhemp (tall waterhemp; 125 g ai/ha): 100
- Plant response rating, Waterhemp (tall waterhemp; 250 g ai/ha): 100
- Plant response rating, Wheat, Spring (spring wheat; 31 g ai/ha): 20
- Plant response rating, Wheat, Spring (spring wheat; 62 g ai/ha): 30
- Plant response rating, Wheat, Spring (spring wheat; 125 g ai/ha): 30
- Plant response rating, Wheat, Spring (spring wheat; 250 g ai/ha): 30
- Plant response rating, Wheat, Winter (winter wheat; 31 g ai/ha): 30
- Plant response rating, Wheat, Winter (winter wheat; 62 g ai/ha): 20
- Plant response rating, Wheat, Winter (winter wheat; 125 g ai/ha): 25
- Plant response rating, Wheat, Winter (winter wheat; 250 g ai/ha): 45
- Plant response rating, Barnyardgrass (barnyardgrass; 31 g ai/ha): 70
- Plant response rating, Barnyardgrass (barnyardgrass; 62 g ai/ha): 100
- Plant response rating, Barnyardgrass (barnyardgrass; 125 g ai/ha): 100
- Plant response rating, Barnyardgrass (barnyardgrass; 250 g ai/ha): 100
- Plant response rating, Foxtail, Millet (millet foxtail; 31 g ai/ha): 30
- Plant response rating, Foxtail, Millet (millet foxtail; 62 g ai/ha): 40
- Plant response rating, Foxtail, Millet (millet foxtail; 125 g ai/ha): 70
- Plant response rating, Foxtail, Millet (millet foxtail; 250 g ai/ha): 100
- Plant response rating, Blackgrass (blackgrass; 31 g ai/ha): 0
- Plant response rating, Blackgrass (blackgrass; 62 g ai/ha): 30
- Plant response rating, Blackgrass (blackgrass; 125 g ai/ha): 50
- Plant response rating, Blackgrass (blackgrass; 250 g ai/ha): 100
- Plant response rating, Bluegrass (annual bluegrass; 31 g ai/ha): 50
- Plant response rating, Bluegrass (annual bluegrass; 62 g ai/ha): 50
- Plant response rating, Bluegrass (annual bluegrass; 125 g ai/ha): 80
- Plant response rating, Bluegrass (annual bluegrass; 250 g ai/ha): 100
- Plant response rating, Millet (millet; 31 g ai/ha): 20
- Plant response rating, Millet (millet; 62 g ai/ha): 40
- Plant response rating, Millet (millet; 125 g ai/ha): 40
- Plant response rating, Millet (millet; 250 g ai/ha): 100
- Plant response rating, Bromegrass, Downy (downy bromegrass; 31 g ai/ha): 30
- Plant response rating, Bromegrass, Downy (downy bromegrass; 62 g ai/ha): 30
- Plant response rating, Bromegrass, Downy (downy bromegrass; 125 g ai/ha): 30
- Plant response rating, Bromegrass, Downy (downy bromegrass; 250 g ai/ha): 30
- Plant response rating, Oat, Wild (wild oat; 31 g ai/ha): 25
- Plant response rating, Oat, Wild (wild oat; 62 g ai/ha): 30
- Plant response rating, Oat, Wild (wild oat; 125 g ai/ha): 30
- Plant response rating, Oat, Wild (wild oat; 250 g ai/ha): 35
- Plant response rating, Itchgrass (itchgrass; 31 g ai/ha): 0
- Plant response rating, Itchgrass (itchgrass; 62 g ai/ha): 20
- Plant response rating, Itchgrass (itchgrass; 125 g ai/ha): 30
- Plant response rating, Itchgrass (itchgrass; 250 g ai/ha): 60
- Plant response rating, Signalgrass (broadleaf signalgrass; 31 g ai/ha): 0
- Plant response rating, Signalgrass (broadleaf signalgrass; 62 g ai/ha): 20
- Plant response rating, Signalgrass (broadleaf signalgrass; 125 g ai/ha): 80
- Plant response rating, Signalgrass (broadleaf signalgrass; 250 g ai/ha): 90
- Plant response rating, Sorghum (sorghum; 31 g ai/ha): 10
- Plant response rating, Sorghum (sorghum; 62 g ai/ha): 25
- Plant response rating, Sorghum (sorghum; 125 g ai/ha): 35
- Plant response rating, Sorghum (sorghum; 250 g ai/ha): 40
- Plant response rating, Field Violet (field violet; 31 g ai/ha): 0
- Plant response rating, Field Violet (field violet; 62 g ai/ha): 0
- Plant response rating, Field Violet (field violet; 125 g ai/ha): 0
- Plant response rating, Field Violet (field violet; 250 g ai/ha): 10
- Plant response rating, Umbrella Sedge (umbrella sedge): 100
- Plant response rating, Canarygrass (littleseed canarygrass; 31 g ai/ha): 30
- Plant response rating, Canarygrass (littleseed canarygrass; 62 g ai/ha): 100
- Plant response rating, Canarygrass (littleseed canarygrass; 125 g ai/ha): 100
- Plant response rating, Canarygrass (littleseed canarygrass; 250 g ai/ha): 100
- Plant response rating, Cupgrass, Woolly (woolly cupgrass; 31 g ai/ha): 0
- Plant response rating, Cupgrass, Woolly (woolly cupgrass; 62 g ai/ha): 75
- Plant response rating, Cupgrass, Woolly (woolly cupgrass; 125 g ai/ha): 75
- Plant response rating, Cupgrass, Woolly (woolly cupgrass; 250 g ai/ha): 100
- Plant response rating, Cotton (cotton; 31 g ai/ha): 5
- Plant response rating, Cotton (cotton; 62 g ai/ha): 25
- Plant response rating, Cotton (cotton; 125 g ai/ha): 0
- Plant response rating, Cotton (cotton; 250 g ai/ha): 10
- Plant response rating, Ryegrass, Italian (Italian ryegrass; 31 g ai/ha): 20
- Plant response rating, Ryegrass, Italian (Italian ryegrass; 62 g ai/ha): 20
- Plant response rating, Ryegrass, Italian (Italian ryegrass; 125 g ai/ha): 20
- Plant response rating, Ryegrass, Italian (Italian ryegrass; 250 g ai/ha): 50
- Plant response rating, Ducksalad (duck salad): 90
- Plant response rating, Nightshade (eastern black nightshade; 31 g ai/ha): 20
- Plant response rating, Nightshade (eastern black nightshade; 62 g ai/ha): 30
- Plant response rating, Nightshade (eastern black nightshade; 125 g ai/ha): 90
- Plant response rating, Nightshade (eastern black nightshade; 250 g ai/ha): 100
- Plant response rating, Foxtail, Yellow (yellow foxtail; 31 g ai/ha): 100
- Plant response rating, Foxtail, Yellow (yellow foxtail; 62 g ai/ha): 100
- Plant response rating, Foxtail, Yellow (yellow foxtail; 125 g ai/ha): 100
- Plant response rating, Foxtail, Yellow (yellow foxtail; 250 g ai/ha): 100
